Measurements taken from publication PMC7265341, “Quantifying CDK inhibitor selectivity in live cells” (Nature Communications, 2020).
Read-outs that look alike come from different tables or passages of the source.

What was measured:
CDK4/Cyclin D1 = CDK4/Cyclin D1 (Homo sapiens, UniProt P11802); experiment: NanoBRET live-cell target engagement, NanoLuc-CDK4/Cyclin D1 in HEK-293; type: binding; conditions: CDK4/D1, read-out: Inhibition at 10µM (%)
CDK10/Cyclin L2 = CDK10/Cyclin L2 (Homo sapiens, UniProt Q15131); experiment: NanoBRET live-cell target engagement, CDK10-NanoLuc/Cyclin L2 in HEK-293; conditions: for IC50: IC50 (nM), CDK10/L2; for inhibition at 10 µM: read-out: Inhibition at 10µM (%), CDK10/L2
Chain of CDK10/Cyclin L2 (Q15131 whole entry): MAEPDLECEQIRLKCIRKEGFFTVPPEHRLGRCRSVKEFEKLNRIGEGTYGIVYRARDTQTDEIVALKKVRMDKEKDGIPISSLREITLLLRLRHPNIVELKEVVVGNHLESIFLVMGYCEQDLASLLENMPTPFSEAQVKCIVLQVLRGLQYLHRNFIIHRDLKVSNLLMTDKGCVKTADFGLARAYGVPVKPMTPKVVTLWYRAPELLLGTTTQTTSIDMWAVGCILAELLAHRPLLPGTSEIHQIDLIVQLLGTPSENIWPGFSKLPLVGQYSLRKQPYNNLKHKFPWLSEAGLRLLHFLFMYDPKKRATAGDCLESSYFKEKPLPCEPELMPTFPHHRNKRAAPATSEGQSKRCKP

CDK17/Cyclin Y = CDK17/Cyclin Y (Homo sapiens, UniProt Q00537); experiment: NanoBRET live-cell target engagement, CDK17-NanoLuc/Cyclin Y in HEK-293; type: binding; conditions: CDK17/Y; for IC50: read-out: IC50; for inhibition at 10 µM: read-out: Inhibition at 10µM (%)
Chain of CDK17/Cyclin Y (Q00537 whole entry): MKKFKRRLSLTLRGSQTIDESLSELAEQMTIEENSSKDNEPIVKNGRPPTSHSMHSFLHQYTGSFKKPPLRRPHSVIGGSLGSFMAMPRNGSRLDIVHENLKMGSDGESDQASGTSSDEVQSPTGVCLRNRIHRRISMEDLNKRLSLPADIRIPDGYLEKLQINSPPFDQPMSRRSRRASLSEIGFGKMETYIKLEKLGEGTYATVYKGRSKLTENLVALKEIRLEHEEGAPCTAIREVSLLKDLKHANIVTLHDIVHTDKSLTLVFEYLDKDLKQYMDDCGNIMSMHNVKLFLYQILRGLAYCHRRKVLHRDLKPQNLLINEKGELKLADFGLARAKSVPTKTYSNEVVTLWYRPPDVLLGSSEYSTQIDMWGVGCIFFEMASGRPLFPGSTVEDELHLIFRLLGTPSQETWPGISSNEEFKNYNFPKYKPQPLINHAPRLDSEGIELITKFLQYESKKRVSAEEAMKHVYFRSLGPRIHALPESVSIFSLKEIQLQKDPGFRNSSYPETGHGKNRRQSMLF
Chain of CDK17/Cyclin Y (Q8ND76 whole entry partner): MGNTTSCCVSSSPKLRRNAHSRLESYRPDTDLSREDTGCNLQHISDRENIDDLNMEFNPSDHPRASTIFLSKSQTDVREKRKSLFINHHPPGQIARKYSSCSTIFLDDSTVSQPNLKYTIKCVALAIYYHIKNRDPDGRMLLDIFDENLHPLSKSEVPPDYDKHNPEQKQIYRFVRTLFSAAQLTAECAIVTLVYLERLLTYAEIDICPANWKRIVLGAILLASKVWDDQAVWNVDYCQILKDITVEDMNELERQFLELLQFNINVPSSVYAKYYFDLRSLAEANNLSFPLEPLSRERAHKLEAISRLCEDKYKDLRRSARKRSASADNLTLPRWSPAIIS

CDK1/Cyclin E1 = CDK1/Cyclin E1 (Homo sapiens, UniProt P06493); experiment: NanoBRET live-cell target engagement, CDK1-NanoLuc/Cyclin E1 in HEK-293; type: binding; conditions: CDK1/E1, read-out: Inhibition at 10µM (%)
CDK20/Cyclin H = CDK20/Cyclin H (Homo sapiens, UniProt Q8IZL9); experiment: NanoBRET live-cell target engagement, NanoLuc-CDK20/Cyclin H in HEK-293; type: binding; conditions: CDK20/H, read-out: Inhibition at 10µM (%)
CDK7 = CDK7 (Homo sapiens, UniProt P50613); experiment: NanoBRET live-cell target engagement, NanoLuc-CDK7 in HEK-293; type: binding; conditions: for inhibition at 10 µM: read-out: Inhibition at 10µM (%)
Chain of CDK7 (P50613 whole entry): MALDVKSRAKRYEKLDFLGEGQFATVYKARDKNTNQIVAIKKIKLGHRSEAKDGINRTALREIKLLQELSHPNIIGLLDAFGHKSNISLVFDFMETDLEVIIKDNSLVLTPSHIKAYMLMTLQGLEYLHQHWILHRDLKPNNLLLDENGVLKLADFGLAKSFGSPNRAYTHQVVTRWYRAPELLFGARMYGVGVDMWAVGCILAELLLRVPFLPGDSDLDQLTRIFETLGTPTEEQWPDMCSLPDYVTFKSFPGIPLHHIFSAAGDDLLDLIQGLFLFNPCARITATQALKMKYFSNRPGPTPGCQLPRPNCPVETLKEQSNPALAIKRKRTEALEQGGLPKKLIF

CDK9/Cyclin K = CDK9/Cyclin K (Homo sapiens, UniProt P50750); experiment: NanoBRET live-cell target engagement, NanoLuc-CDK9/Cyclin K in HEK-293; type: binding; conditions: CDK9/K, read-out: Inhibition at 10µM (%)
CDK11A/Cyclin L2 = target: T1, CDK11A/Cyclin L2 (Homo sapiens, UniProt Q9UQ88); experiment: NanoBRET live-cell target engagement, CDK11A-NanoLuc/Cyclin L2 in HEK-293; type: binding; conditions: CDK11a/L2, read-out: Inhibition at 10µM (%)
T1 sequence (Q9UQ88 1-783): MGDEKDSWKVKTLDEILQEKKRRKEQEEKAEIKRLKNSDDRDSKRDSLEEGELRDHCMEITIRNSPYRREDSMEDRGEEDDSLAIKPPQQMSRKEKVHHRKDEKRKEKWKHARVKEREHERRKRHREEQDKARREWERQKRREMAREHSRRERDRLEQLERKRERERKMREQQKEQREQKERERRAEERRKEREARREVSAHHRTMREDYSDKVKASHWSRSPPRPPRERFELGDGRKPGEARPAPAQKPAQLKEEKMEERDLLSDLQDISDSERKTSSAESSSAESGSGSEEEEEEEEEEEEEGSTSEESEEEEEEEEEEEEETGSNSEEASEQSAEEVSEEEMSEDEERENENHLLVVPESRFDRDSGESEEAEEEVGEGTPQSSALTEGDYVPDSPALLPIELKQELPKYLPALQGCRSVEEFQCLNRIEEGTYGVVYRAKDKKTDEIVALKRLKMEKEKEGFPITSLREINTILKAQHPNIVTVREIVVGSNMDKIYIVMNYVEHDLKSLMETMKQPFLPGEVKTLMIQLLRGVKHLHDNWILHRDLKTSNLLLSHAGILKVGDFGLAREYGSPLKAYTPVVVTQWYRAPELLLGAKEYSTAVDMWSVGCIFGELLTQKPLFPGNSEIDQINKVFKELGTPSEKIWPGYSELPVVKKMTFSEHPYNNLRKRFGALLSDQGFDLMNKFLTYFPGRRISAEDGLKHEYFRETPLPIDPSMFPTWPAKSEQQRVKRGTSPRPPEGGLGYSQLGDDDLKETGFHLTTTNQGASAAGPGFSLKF

CDK8/Cyclin C = CDK8/Cyclin C (Homo sapiens, UniProt P49336); experiment: NanoBRET live-cell target engagement, NanoLuc-CDK8/Cyclin C in HEK-293; type: binding; conditions: for inhibition at 10 µM: read-out: Inhibition at 10µM (%)
CDK6/Cyclin D1 = CDK6/Cyclin D1 (Homo sapiens, UniProt Q00534); experiment: NanoBRET live-cell target engagement, NanoLuc-CDK6/Cyclin D1 in HEK-293; type: binding; conditions: CDK6/D1, read-out: Inhibition at 10µM (%)
Chain of CDK6/Cyclin D1 (Q00534 whole entry): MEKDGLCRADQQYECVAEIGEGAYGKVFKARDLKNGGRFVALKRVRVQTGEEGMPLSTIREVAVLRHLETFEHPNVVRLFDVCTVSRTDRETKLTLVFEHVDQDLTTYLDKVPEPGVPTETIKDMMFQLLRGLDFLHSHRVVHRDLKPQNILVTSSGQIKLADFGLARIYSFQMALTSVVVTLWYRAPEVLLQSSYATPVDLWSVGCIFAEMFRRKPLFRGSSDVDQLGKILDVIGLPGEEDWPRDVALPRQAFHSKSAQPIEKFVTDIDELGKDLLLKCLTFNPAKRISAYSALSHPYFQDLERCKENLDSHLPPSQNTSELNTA
Chain of CDK6/Cyclin D1 (P24385 whole entry partner): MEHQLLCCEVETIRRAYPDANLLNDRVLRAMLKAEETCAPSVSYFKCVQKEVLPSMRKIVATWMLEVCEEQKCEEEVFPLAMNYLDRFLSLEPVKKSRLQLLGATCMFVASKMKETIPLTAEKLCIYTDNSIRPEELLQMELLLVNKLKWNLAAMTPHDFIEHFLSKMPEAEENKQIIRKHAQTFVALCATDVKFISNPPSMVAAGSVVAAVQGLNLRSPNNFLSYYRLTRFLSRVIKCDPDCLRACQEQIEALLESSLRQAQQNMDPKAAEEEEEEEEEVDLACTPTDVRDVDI

CDK16/Cyclin Y = CDK16/Cyclin Y (Homo sapiens, UniProt Q00536); experiment: NanoBRET live-cell target engagement, CDK16-NanoLuc/Cyclin Y in HEK-293; type: binding; conditions: CDK16/Y; for IC50: read-out: IC50; for inhibition at 10 µM: read-out: Inhibition at 10µM (%)
CDK19/Cyclin C = CDK19/Cyclin C (Homo sapiens, UniProt Q9BWU1); experiment: NanoBRET live-cell target engagement, NanoLuc-CDK19/Cyclin C in HEK-293; conditions: for inhibition at 10 µM: read-out: Inhibition at 10µM (%), CDK19/C
CDK13/Cyclin K = CDK13/Cyclin K (Homo sapiens, UniProt Q14004); experiment: NanoBRET live-cell target engagement, CDK13-NanoLuc/Cyclin K in HEK-293; type: binding; conditions: CDK13/K, read-out: Inhibition at 10µM (%)
CDK18/Cyclin Y = CDK18/Cyclin Y (Homo sapiens, UniProt Q07002); experiment: NanoBRET live-cell target engagement, CDK18-NanoLuc/Cyclin Y in HEK-293; type: binding; conditions: CDK18/Y; for IC50: read-out: IC50; for inhibition at 10 µM: read-out: Inhibition at 10µM (%)
Chain of CDK18/Cyclin Y (Q07002 whole entry): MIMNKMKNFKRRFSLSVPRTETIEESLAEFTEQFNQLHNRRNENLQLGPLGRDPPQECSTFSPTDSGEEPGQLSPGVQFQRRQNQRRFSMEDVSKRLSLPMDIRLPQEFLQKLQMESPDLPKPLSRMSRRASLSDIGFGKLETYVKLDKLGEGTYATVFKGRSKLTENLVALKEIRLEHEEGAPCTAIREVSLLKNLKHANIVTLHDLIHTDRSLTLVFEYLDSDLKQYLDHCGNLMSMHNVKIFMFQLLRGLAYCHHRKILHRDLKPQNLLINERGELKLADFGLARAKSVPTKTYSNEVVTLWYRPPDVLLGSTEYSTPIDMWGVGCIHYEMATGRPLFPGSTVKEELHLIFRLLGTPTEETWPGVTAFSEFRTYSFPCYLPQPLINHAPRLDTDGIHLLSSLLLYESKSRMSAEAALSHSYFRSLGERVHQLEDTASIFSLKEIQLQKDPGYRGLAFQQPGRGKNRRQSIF
Chain of CDK18/Cyclin Y (Q8ND76 whole entry partner): as the sequence (Q8ND76 whole entry partner) above

CDK5/CDK5R1 = CDK5/CDK5R1 (Homo sapiens, UniProt Q00535); experiment: NanoBRET live-cell target engagement, CDK5-NanoLuc/CDK5R1 in HEK-293; type: binding; conditions: CDK5/CDK5R1, read-out: Inhibition at 10µM (%)
Chain of CDK5/CDK5R1 (Q00535 whole entry): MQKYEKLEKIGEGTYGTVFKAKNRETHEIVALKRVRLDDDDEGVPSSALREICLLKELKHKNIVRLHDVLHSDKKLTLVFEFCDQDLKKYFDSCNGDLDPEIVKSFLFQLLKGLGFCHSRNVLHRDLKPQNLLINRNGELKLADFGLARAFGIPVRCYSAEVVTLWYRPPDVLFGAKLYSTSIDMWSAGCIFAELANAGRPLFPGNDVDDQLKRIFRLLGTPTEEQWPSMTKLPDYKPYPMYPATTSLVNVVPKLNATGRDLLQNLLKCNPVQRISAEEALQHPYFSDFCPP
Chain of CDK5/CDK5R1 (Q15078 whole entry partner): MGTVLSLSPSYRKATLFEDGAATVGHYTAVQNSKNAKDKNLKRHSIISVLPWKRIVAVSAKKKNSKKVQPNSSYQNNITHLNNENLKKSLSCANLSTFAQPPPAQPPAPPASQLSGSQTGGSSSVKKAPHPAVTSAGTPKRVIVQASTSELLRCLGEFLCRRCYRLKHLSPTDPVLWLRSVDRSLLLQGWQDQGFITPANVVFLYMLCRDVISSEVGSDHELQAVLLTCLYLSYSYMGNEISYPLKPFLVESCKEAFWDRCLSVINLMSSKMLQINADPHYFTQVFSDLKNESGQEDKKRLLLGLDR

CDK15/Cyclin Y = CDK15/Cyclin Y (Homo sapiens, UniProt Q96Q40); experiment: NanoBRET live-cell target engagement, NanoLuc-CDK15/Cyclin Y in HEK-293; type: binding; conditions: CDK15/Y, read-out: Inhibition at 10µM (%)
CDK14/Cyclin Y = CDK14/Cyclin Y (Homo sapiens, UniProt O94921); experiment: NanoBRET live-cell target engagement, CDK14-NanoLuc/Cyclin Y in HEK-293; type: binding; conditions: CDK14/Y, read-out: Inhibition at 10µM (%)
Chain of CDK14/Cyclin Y (O94921 whole entry): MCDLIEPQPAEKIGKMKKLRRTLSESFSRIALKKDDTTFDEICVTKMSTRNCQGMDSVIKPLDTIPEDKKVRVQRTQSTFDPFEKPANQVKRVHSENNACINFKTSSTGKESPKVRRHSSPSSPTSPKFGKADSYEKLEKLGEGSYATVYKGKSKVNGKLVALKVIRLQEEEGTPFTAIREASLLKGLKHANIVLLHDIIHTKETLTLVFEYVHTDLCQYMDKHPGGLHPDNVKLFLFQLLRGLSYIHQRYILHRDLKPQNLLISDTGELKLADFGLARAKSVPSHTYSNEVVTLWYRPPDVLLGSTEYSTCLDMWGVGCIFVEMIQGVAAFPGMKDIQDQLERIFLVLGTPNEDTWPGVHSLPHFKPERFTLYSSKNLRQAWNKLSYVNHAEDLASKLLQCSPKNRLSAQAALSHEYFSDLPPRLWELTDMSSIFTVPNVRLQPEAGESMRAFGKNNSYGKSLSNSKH
Chain of CDK14/Cyclin Y (Q8ND76 whole entry partner): as the sequence (Q8ND76 whole entry partner) above

CDK11B/Cyclin L2 = CDK11B/Cyclin L2 (Homo sapiens, UniProt P21127); experiment: NanoBRET live-cell target engagement, CDK11B-NanoLuc/Cyclin L2 in HEK-293; type: binding; conditions: CDK11b/L2, read-out: Inhibition at 10µM (%)
Chain of CDK11B/Cyclin L2 (P21127 1-782 isoform P21127-2): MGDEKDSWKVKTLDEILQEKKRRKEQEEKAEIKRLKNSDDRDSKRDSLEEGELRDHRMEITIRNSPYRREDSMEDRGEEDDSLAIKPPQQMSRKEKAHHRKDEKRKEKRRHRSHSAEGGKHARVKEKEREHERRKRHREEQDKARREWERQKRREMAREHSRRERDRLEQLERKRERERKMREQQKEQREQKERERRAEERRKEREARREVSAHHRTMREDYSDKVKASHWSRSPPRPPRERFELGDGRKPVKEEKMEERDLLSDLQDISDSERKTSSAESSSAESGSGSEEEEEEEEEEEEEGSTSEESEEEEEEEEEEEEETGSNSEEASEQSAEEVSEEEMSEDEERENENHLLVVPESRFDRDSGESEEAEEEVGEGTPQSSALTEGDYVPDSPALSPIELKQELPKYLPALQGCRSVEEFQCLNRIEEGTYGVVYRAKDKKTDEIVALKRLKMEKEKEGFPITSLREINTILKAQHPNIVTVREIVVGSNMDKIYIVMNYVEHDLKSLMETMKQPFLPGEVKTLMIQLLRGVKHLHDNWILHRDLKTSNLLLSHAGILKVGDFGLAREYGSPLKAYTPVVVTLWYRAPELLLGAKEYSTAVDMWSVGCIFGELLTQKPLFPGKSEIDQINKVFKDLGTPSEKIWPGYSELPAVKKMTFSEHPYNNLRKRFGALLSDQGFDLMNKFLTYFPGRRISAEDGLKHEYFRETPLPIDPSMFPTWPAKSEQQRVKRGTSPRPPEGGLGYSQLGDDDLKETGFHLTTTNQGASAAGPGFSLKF

- inhibition at 10 µM (CDK4/Cyclin D1; average): 78.8%
- inhibition at 10 µM (CDK4/Cyclin D1; experiment 1): 79.9%
- inhibition at 10 µM (CDK4/Cyclin D1; experiment 2): 77.6%
- IC50 (CDK10/Cyclin L2; average (± SEM where n=3)): 500 ± 100 nM
- IC50 (CDK10/Cyclin L2; experiment 1): 310 nM
- IC50 (CDK10/Cyclin L2; experiment 2): 530 nM
- IC50 (CDK10/Cyclin L2; experiment 3): 670 nM
- inhibition at 10 µM (CDK10/Cyclin L2; average): 79.8%
- inhibition at 10 µM (CDK10/Cyclin L2; experiment 1): 79.7%
- inhibition at 10 µM (CDK10/Cyclin L2; experiment 2): 79.9%
- IC50 (CDK17/Cyclin Y; average (± SEM where n=3)): 190 ± 60 nM
- inhibition at 10 µM (CDK17/Cyclin Y; average): 89.9%
- IC50 (CDK17/Cyclin Y; experiment 1): 80 nM
- inhibition at 10 µM (CDK17/Cyclin Y; experiment 1): 89.1%
- IC50 (CDK17/Cyclin Y; experiment 2): 281 nM
- inhibition at 10 µM (CDK17/Cyclin Y; experiment 2): 90.7%
- IC50 (CDK17/Cyclin Y; experiment 3): 200 nM
- inhibition at 10 µM (CDK1/Cyclin E1; average): 70.4%
- inhibition at 10 µM (CDK1/Cyclin E1; experiment 1): 66.2%
- inhibition at 10 µM (CDK1/Cyclin E1; experiment 2): 74.6%
- inhibition at 10 µM (CDK20/Cyclin H; experiment 1): 40%
- inhibition at 10 µM (CDK20/Cyclin H; experiment 2): 64.4%
- inhibition at 10 µM (CDK7; CDK7, average): 81.8%
- IC50 (CDK7; CDK7, experiment 1, read-out: IC50): 76 nM
- inhibition at 10 µM (CDK7; CDK7, experiment 1): 83.6%
- IC50 (CDK7; CDK7, experiment 2, read-out: IC50): 59 nM
- inhibition at 10 µM (CDK7; CDK7, experiment 2): 79.9%
- IC50 (CDK7; CDK7, experiment 3, read-out: IC50): 55 nM
- IC50 (CDK7; live HEK-293, 2 h, mean ± S.E.M. (n=3) or mean (n=2), read-out: IC50 for CDK/cyclin complexes, CDK7): 63 nM
- inhibition at 10 µM (CDK9/Cyclin K; average): 85.1%
- inhibition at 10 µM (CDK9/Cyclin K; experiment 1): 84.3%
- inhibition at 10 µM (CDK9/Cyclin K; experiment 2): 85.8%
- inhibition at 10 µM (CDK11A/Cyclin L2; average): 14.5%
- inhibition at 10 µM (CDK11A/Cyclin L2; experiment 1): 19.2%
- inhibition at 10 µM (CDK11A/Cyclin L2; experiment 2): 9.8%
- inhibition at 10 µM (CDK8/Cyclin C; CDK8/C, average): 95.6%
- IC50 (CDK8/Cyclin C; CDK8/C, experiment 1, read-out: IC50): 2.1 nM
- inhibition at 10 µM (CDK8/Cyclin C; CDK8/C, experiment 1): 96.7%
- IC50 (CDK8/Cyclin C; CDK8/C, experiment 2, read-out: IC50): 5 nM
- inhibition at 10 µM (CDK8/Cyclin C; CDK8/C, experiment 2): 94.5%
- IC50 (CDK8/Cyclin C; CDK8/C, experiment 3, read-out: IC50): 2.2 nM
- IC50 (CDK8/Cyclin C; live HEK-293, 2 h, mean ± S.E.M. (n=3) or mean (n=2), read-out: IC50 for CDK/cyclin complexes, CDK8/C): 3 nM
- inhibition at 10 µM (CDK6/Cyclin D1; average): 35.2%
- inhibition at 10 µM (CDK6/Cyclin D1; experiment 1): 23.8%
- inhibition at 10 µM (CDK6/Cyclin D1; experiment 2): 46.5%
- IC50 (CDK16/Cyclin Y; average (± SEM where n=3)): 260 ± 70 nM
- IC50 (CDK16/Cyclin Y; experiment 1): 140 nM
- inhibition at 10 µM (CDK16/Cyclin Y; experiment 1): 74.3%
- IC50 (CDK16/Cyclin Y; experiment 2): 365 nM
- inhibition at 10 µM (CDK16/Cyclin Y; experiment 2): 80.7%
- IC50 (CDK16/Cyclin Y; experiment 3): 270 nM
- IC50 (CDK19/Cyclin C; IC50 (nM), CDK19/C, experiment 1): 1.4 nM
- IC50 (CDK19/Cyclin C; IC50 (nM), CDK19/C, experiment 2): 2.3 nM
- IC50 (CDK19/Cyclin C; IC50 (nM), CDK19/C, experiment 3): 0.5 nM
- IC50 (CDK19/Cyclin C; IC50 (nM), CDK19/Y (so in the source), average (± SEM where n=3)): 1.4 ± 0.5 nM
- IC50 (CDK19/Cyclin C; IC50 for CDK/cyclin complexes, CDK19/C, live HEK-293, 2 h, mean ± S.E.M. (n=3) or mean (n=2)): 1.4 ± 0.5 nM
- inhibition at 10 µM (CDK19/Cyclin C; average): 96.4%
- inhibition at 10 µM (CDK19/Cyclin C; experiment 1): 95.5%
- inhibition at 10 µM (CDK19/Cyclin C; experiment 2): 97.3%
- inhibition at 10 µM (CDK13/Cyclin K; average): 36.6%
- inhibition at 10 µM (CDK13/Cyclin K; experiment 1): 32.4%
- inhibition at 10 µM (CDK13/Cyclin K; experiment 2): 40.8%
- IC50 (CDK18/Cyclin Y; average (± SEM where n=3)): 400 ± 100 nM
- inhibition at 10 µM (CDK18/Cyclin Y; average): 93.7%
- IC50 (CDK18/Cyclin Y; experiment 1): 144 nM
- inhibition at 10 µM (CDK18/Cyclin Y; experiment 1): 88.2%
- IC50 (CDK18/Cyclin Y; experiment 2): 408 nM
- inhibition at 10 µM (CDK18/Cyclin Y; experiment 2): 99.2%
- IC50 (CDK18/Cyclin Y; experiment 3): 610 nM
- inhibition at 10 µM (CDK5/CDK5R1; average): 23.7%
- inhibition at 10 µM (CDK5/CDK5R1; experiment 1): 27.8%
- inhibition at 10 µM (CDK5/CDK5R1; experiment 2): 19.6%
- inhibition at 10 µM (CDK15/Cyclin Y; average): 80.7%
- inhibition at 10 µM (CDK15/Cyclin Y; experiment 1): 82.9%
- inhibition at 10 µM (CDK15/Cyclin Y; experiment 2): 78.6%
- inhibition at 10 µM (CDK14/Cyclin Y; average): 84.9%
- inhibition at 10 µM (CDK14/Cyclin Y; experiment 1): 87.3%
- inhibition at 10 µM (CDK14/Cyclin Y; experiment 2): 82.6%
- inhibition at 10 µM (CDK11B/Cyclin L2; average): 9.9%
- inhibition at 10 µM (CDK11B/Cyclin L2; experiment 1): 15.5%
- inhibition at 10 µM (CDK11B/Cyclin L2; experiment 2): 4.3%
SMILES: CN1CCN(Cc2ccc(NC(=O)Nc3ccc(Oc4ccnc(N)n4)cc3)cc2C(F)(F)F)CC1 [K03861]
